“And” between values parts separate entries of the source, which are not always exact repeats. Equal entries are not always repeated.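 Assay format: 96-well plates, 48-hour exposure. GI50 = concentration required for 50% inhibition of growth. TGI marks complete inhibition of growth.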
Legend:
Assay in all cases: growth of human tumour cells (NCI), 48 h
U251 CNS = tested on: U251 CNS
LOX IMVI melanoma = tested on: LOX IMVI melanoma
786-0 renal = tested on: 786-0 renal
MALME-3M melanoma = tested on: MALME-3M melanoma
SF-295 CNS = tested on: SF-295 CNS
SN12C renal = tested on: SN12C renal
SK-MEL-2 melanoma = tested on: SK-MEL-2 melanoma
HCT-116 colon = tested on: HCT-116 colon
HOP-92 NSCLC = tested on: HOP-92 NSCLC
OVCAR-3 ovarian = tested on: OVCAR-3 ovarian

| SMILES | TGI (U251 CNS) | TGI (LOX IMVI melanoma) | TGI (786-0 renal) | TGI (MALME-3M melanoma) | TGI (SF-295 CNS) | TGI (SN12C renal) | TGI (SK-MEL-2 melanoma) | TGI (HCT-116 colon) | TGI (HOP-92 NSCLC) | GI50 (U251 CNS) | GI50 (LOX IMVI melanoma) | GI50 (786-0 renal) | GI50 (MALME-3M melanoma) | GI50 (SF-295 CNS) | GI50 (OVCAR-3 ovarian) | TGI (OVCAR-3 ovarian) | GI50 (SN12C renal) | GI50 (SK-MEL-2 melanoma) | GI50 (HCT-116 colon) | GI50 (HOP-92 NSCLC) |
| --- | --- | --- | --- | --- | --- | --- | --- | --- | --- | --- | --- | --- | --- | --- | --- | --- | --- | --- | --- | --- |
| C[N+](C)(C)CC(=O)N/N=C(/C=C/c1ccccc1)CC1OC(=O)c2ccccc21 (centres undefined) | > 100 µM | > 10 µM | > 100 µM | > 100 µM | > 10 µM | > 100 µM | > 100 µM | > 100 µM | > 10 µM |  |  |  |  |  |  |  |  |  |  |  |
| O=C(CCCCCCc1nc2ccc(Br)cc2[nH]1)NO | 4.62 µM | 1.55 µM | 10.7 µM | 0.813 µM | 2.84 µM | > 35.5 µM | 3.87 µM | 1.03 µM | 0.905 µM | 0.387 µM | 0.396 µM | 1.03 µM | 0.203 µM | 0.471 µM | 0.313 µM | 1.61 µM | 1.3 µM | 0.279 µM | 0.202 µM | 0.241 µM |
| COc1ccccc1/C=C1\COc2ccc(O)c(O)c2C1=O | 3.99 µM | 2.66 µM | 6.72 µM | 3.72 µM | > 100 µM | 5.31 µM | 8.67 µM | 3.99 µM | 20.8 µM | 1.57 µM | 1.26 µM | 2.2 µM | 1.38 µM | 4.49 µM | 0.834 µM | 6.68 µM | 1.48 µM | 2.72 µM | 1.61 µM | 2.98 µM |
| Clc1ccc(Cl)c(N/N=C\c2c[nH]c3ccccc23)c1 | > 100 µM | 74.7 µM | 25.4 µM | 39.8 µM | 70.4 µM | 22.3 µM | 26.7 µM | 27.9 µM | 8.37 µM | 22 µM | 4.21 µM | 12.8 µM | 20.3 µM | 13.8 µM | 11.4 µM | 26.1 µM | 7.15 µM | 13.1 µM | 14.8 µM | 1.13 µM |
| COc1ccc(CN2CCc3c(Cl)nc(N)nc3C2=O)c(OC)c1 | 27.9 µM | 26.7 µM | 48.1 µM | 44.2 µM | > 100 µM | 31.5 µM | 34.8 µM | 29.9 µM | 36 µM | 14.6 µM | 13.2 µM | 23.9 µM | 15.8 µM | 40.3 µM | 15.4 µM | 29.8 µM | 14.9 µM | 16.6 µM | 16.1 µM | 14.5 µM |
| CN(C)CCCn1cnc2ncccc2c1=O | > 100 µM | > 100 µM | > 100 µM | > 100 µM | > 100 µM | > 100 µM | > 100 µM | > 100 µM | > 100 µM |  |  |  |  |  |  | > 100 µM |  |  |  |  |
| O=C(Nc1ccc(Cl)cc1)NS(=O)(=O)c1ccc2c(c1)CCC2 | > 77.5 µM and 48.3 µg/mL | > 79.9 µM | > 100 µM and 40.5 µg/mL | > 71.3 µM and 38.2 µg/mL | > 100 µM and 31.9 µg/mL | > 100 µM and 43.1 µg/mL | > 100 µM and 48.6 µg/mL | > 67.3 µM and 27.9 µg/mL | 31.5 µg/mL | 22.5 µg/mL |  | 21.1 µg/mL | 13.7 µg/mL | 12 µg/mL | 5.61 µg/mL | 73.8 µM and 21.4 µg/mL | 20.3 µg/mL | 21.6 µg/mL | 8.93 µg/mL | 8.6 µg/mL |
| CCOP1(=O)OCC2OC(n3cnc4c(N)ncnc43)C(O)C2O1 (centres undefined) | > 100 µM | > 100 µM | > 100 µM | > 100 µM | > 100 µM | > 100 µM | > 100 µM | > 100 µM | > 100 µM |  |  |  |  |  |  | > 100 µM |  |  |  |  |
| CCc1ccc(Cc2ccc(CC)c(NC(=O)C(=O)Cc3nc4ccccc4nc3C)c2CC)c(CC)c1NC(=O)C(=O)Cc1nc2ccccc2nc1C | > 100 µM | > 100 µM | > 100 µM | > 100 µM |  |  | > 100 µM | > 100 µM | 43 µM |  |  |  |  |  |  | > 100 µM |  |  |  |  |
| Cc1nc2c(cnn2-c2ccnc3c(C(F)(F)F)cccc23)c(=O)o1 | > 100 µM | > 100 µM | > 100 µM | > 100 µM | > 100 µM | > 100 µM | > 100 µM | > 100 µM | > 100 µM | > 100 µM | > 100 µM | > 100 µM | > 100 µM | > 100 µM | > 100 µM | > 100 µM | > 100 µM | > 100 µM | > 100 µM | > 100 µM |
| COc1ccc(NC(=O)c2ccc(NC3=C(Cl)C(=O)N(Cc4ccccc4)C3=O)cc2)cc1 | 30.5 µM | 8.43 µM | 7.97 µM |  | 10.4 µM | 30.2 µM | 56.1 µM | 4.89 µM | 13.8 µM | 13.3 µM | 3.06 µM | 2.89 µM |  | 3.52 µM | 2.11 µM | 6.12 µM | 14.4 µM | 10.4 µM | 2.36 µM | 3.63 µM |
| COC1CC(OC2OC(CO)C(O)C(O)C2O)/C(=C\C#N)C(O)C1OC (centres undefined) | > 100 µM | > 100 µM | > 100 µM | > 100 µM | > 100 µM | > 100 µM | > 100 µM | > 100 µM | > 100 µM |  |  |  |  |  |  | > 100 µM |  |  |  |  |
| C=C1C(=O)OC(CCCCCCCC)C1C(=O)O (centres undefined) | 29.4 µM | 26.9 µM | 36.7 µM | 27.3 µM | 37.6 µM | 28.5 µM | 31.7 µM | 26.2 µM | 25.4 µM | 15.6 µM | 13.5 µM | 18.2 µM | 11.9 µM | 17.6 µM | 7.66 µM | 19.5 µM | 14.3 µM | 16.1 µM | 11.9 µM | 12.1 µM |
| COc1c(O)c2ccccc2c2cc(O)ccc12 | 17.9 µM | 7.53 µM | 25.1 µM | 3.18 µM | 23.5 µM | 14.1 µM | 11.9 µM | 13.8 µM | 24.3 µM |  |  |  |  |  |  | 19.2 µM |  |  |  |  |
| CN(NC(=O)/C(=C/c1ccc(O)cc1)NC(=O)c1ccccc1)c1ccnc2cc(Cl)ccc12 | 28.5 µM | 37.2 µM | 35.8 µM | 39.8 µM | 32.3 µM | 48.6 µM | 44.4 µM | 38.2 µM | 32.2 µM |  |  |  |  |  |  | 31.2 µM |  |  |  |  |

Source: PubChem BioAssay (NCI)
